Laboratory results: ChEMBL document CHEMBL1629583, “Establishment of in vitro susceptibility testing methodologies and comparative activities of piperacillin in combination with the penem {beta}-lactamase inhibitor BLI-489” (2009)

Legend:
Format in all cases: functional
[1] = test system: Streptococcus pneumoniae; assay: Antimicrobial activity against penicillin-intermediate Streptococcus pneumoniae clinical isolate after 18 to 22 hrs by broth microdilution method
[2] = test system: Citrobacter freundii; assay: Antimicrobial activity against Citrobacter freundii clinical isolate after 18 to 22 hrs by broth microdilution method
[3] = test system: Enterococcus faecium; assay: Antimicrobial activity against Enterococcus faecium clinical isolate after 18 to 22 hrs by broth microdilution method
[4] = test system: Citrobacter freundii; assay: Antimicrobial activity against AmpC beta-lactamase-producing Citrobacter freundii clinical isolate after 18 to 22 hrs by broth microdilution method
[5] = test system: Providencia stuartii; assay: Antimicrobial activity against Providencia stuartii clinical isolate after 18 to 22 hrs by broth microdilution method
[6] = test system: Acinetobacter calcoaceticus; assay: Antimicrobial activity against Acinetobacter calcoaceticus clinical isolate after 18 to 22 hrs by broth microdilution method
[7] = test system: Escherichia coli; assay: Antimicrobial activity against class A extended spectrum beta-lactamase- and class D OXA- producing Escherichia coli clinical isolate after 18 to 22 hrs by broth microdilution method
[8] = test system: Stenotrophomonas maltophilia; assay: Antimicrobial activity against Stenotrophomonas maltophilia clinical isolate after 18 to 22 hrs by broth microdilution method
[9] = test system: Klebsiella pneumoniae; assay: Antimicrobial activity against AmpC- producing Klebsiella pneumoniae clinical isolate after 18 to 22 hrs by broth microdilution method
[10] = test system: Klebsiella pneumoniae; assay: Antimicrobial activity against Klebsiella pneumoniae clinical isolate after 18 to 22 hrs by broth microdilution method
[11] = test system: Citrobacter koseri; assay: Antimicrobial activity against Citrobacter koseri clinical isolate after 18 to 22 hrs by broth microdilution method
[12] = test system: Morganella morganii; assay: Antimicrobial activity against Morganella morganii clinical isolate after 18 to 22 hrs by broth microdilution method
[13] = test system: Burkholderia cepacia; assay: Antimicrobial activity against Burkholderia cepacia clinical isolate after 18 to 22 hrs by broth microdilution method
[14] = test system: Streptococcus pneumoniae; assay: Antimicrobial activity against penicillin-resistant Streptococcus pneumoniae clinical isolate after 18 to 22 hrs by broth microdilution method
[15] = test system: Streptococcus pneumoniae; assay: Antimicrobial activity against penicillin-susceptible Streptococcus pneumoniae clinical isolate after 18 to 22 hrs by broth microdilution method
[16] = test system: Staphylococcus haemolyticus; assay: Antimicrobial activity against Staphylococcus haemolyticus clinical isolate after 18 to 22 hrs by broth microdilution method
[17] = test system: Pseudomonas aeruginosa; assay: Antimicrobial activity against Pseudomonas aeruginosa clinical isolate after 18 to 22 hrs by broth microdilution method
[18] = test system: Escherichia coli; assay: Antimicrobial activity against AmpC beta-lactamase-producing Escherichia coli clinical isolate after 18 to 22 hrs by broth microdilution method
[19] = test system: Providencia rettgeri; assay: Antimicrobial activity against Providencia rettgeri clinical isolate after 18 to 22 hrs by broth microdilution method
[20] = test system: Escherichia coli; assay: Antimicrobial activity against Escherichia coli clinical isolate after 18 to 22 hrs by broth microdilution method
[21] = test system: Enterococcus casseliflavus; assay: Antimicrobial activity against Enterococcus casseliflavus clinical isolate after 18 to 22 hrs by broth microdilution method
[22] = test system: Escherichia coli; assay: Antimicrobial activity against class A extended spectrum beta-lactamase- producing Escherichia coli clinical isolate after 18 to 22 hrs by broth microdilution method
[23] = test system: Streptococcus pyogenes; assay: Antimicrobial activity against Streptococcus pyogenes clinical isolate after 18 to 22 hrs by broth microdilution method
[24] = test system: Serratia marcescens; assay: Antimicrobial activity against Serratia marcescens clinical isolate after 18 to 22 hrs by broth microdilution method
[25] = test system: Enterococcus durans; assay: Antimicrobial activity against Enterococcus durans clinical isolate after 18 to 22 hrs by broth microdilution method
[26] = test system: Klebsiella pneumoniae; assay: Antimicrobial activity against class A extended spectrum beta-lactamase- producing Klebsiella pneumoniae clinical isolate after 18 to 22 hrs by broth microdilution method
[27] = test system: Klebsiella pneumoniae; assay: Antimicrobial activity against class A extended spectrum beta-lactamase- and class D OXA- producing Klebsiella pneumoniae clinical isolate after 18 to 22 hrs by broth microdilution method
[28] = test system: Serratia marcescens; assay: Antimicrobial activity against AmpC beta-lactamase-producing Serratia marcescens clinical isolate after 18 to 22 hrs by broth microdilution method
[29] = test system: Enterococcus avium; assay: Antimicrobial activity against Enterococcus avium clinical isolate after 18 to 22 hrs by broth microdilution method
[30] = test system: Haemophilus influenzae; assay: Antimicrobial activity against beta-lactamase-producing Haemophilus influenzae clinical isolate after 18 to 22 hrs by broth microdilution method
[31] = test system: Acinetobacter johnsonii; assay: Antimicrobial activity against Acinetobacter johnsonii clinical isolate after 18 to 22 hrs by broth microdilution method
[32] = test system: Enterococcus faecalis; assay: Antimicrobial activity against vancomycin-resistant Enterococcus faecalis clinical isolate after 18 to 22 hrs by broth microdilution method
[33] = test system: Enterobacter cloacae; assay: Antimicrobial activity against Enterobacter cloacae clinical isolate after 18 to 22 hrs by broth microdilution method
[34] = test system: Staphylococcus epidermidis; assay: Antimicrobial activity against methicillin-susceptible Staphylococcus epidermidis clinical isolate after 18 to 22 hrs by broth microdilution method
[35] = test system: Staphylococcus aureus; assay: Antimicrobial activity against methicillin-susceptible Staphylococcus aureus clinical isolate after 18 to 22 hrs by broth microdilution method
[36] = test system: Proteus mirabilis; assay: Antimicrobial activity against Proteus mirabilis clinical isolate after 18 to 22 hrs by broth microdilution method
[37] = test system: Acinetobacter junii; assay: Antimicrobial activity against Acinetobacter junii clinical isolate after 18 to 22 hrs by broth microdilution method
[38] = test system: Klebsiella oxytoca; assay: Antimicrobial activity against Klebsiella oxytoca clinical isolate after 18 to 22 hrs by broth microdilution method
[39] = test system: Klebsiella aerogenes; assay: Antimicrobial activity against Enterobacter aerogenes clinical isolate after 18 to 22 hrs by broth microdilution method
[40] = test system: Streptococcus agalactiae; assay: Antimicrobial activity against Streptococcus agalactiae clinical isolate after 18 to 22 hrs by broth microdilution method

## C[C@H]1COc2c(N3CCN(C)CC3)c(F)cc3c(=O)c(C(=O)O)cn1c23.C[C@H]1COc2c(N3CCN(C)CC3)c(F)cc3c(=O)c(C(=O)O)cn1c23.O [LEVOFLOXACIN]
[1]
  MIC50: 0.5 µg/mL
  MIC90: 1 µg/mL
[2]
  MIC50: 0.12 µg/mL
  MIC90: 2 µg/mL
[3]
  MIC50: 4 µg/mL
  MIC90: > 16 µg/mL
[4]
  MIC50: 0.12 µg/mL
  MIC90: 8 µg/mL
[5]
  MIC50: 1 µg/mL
  MIC90: 16 µg/mL
[6]
  MIC50: 8 µg/mL
  MIC90: 16 µg/mL
[7]
  MIC50: 16 µg/mL
  MIC90: > 16 µg/mL
[8]
  MIC50: 1 µg/mL
  MIC90: 4 µg/mL
[9]
  MIC50: 2 µg/mL
  MIC90: > 16 µg/mL
[10]
  MIC50: 0.06 µg/mL
  MIC90: 0.5 µg/mL
[11]
  MIC50: 0.03 µg/mL
  MIC90: 0.06 µg/mL
[12]
  MIC50: 0.03 µg/mL
  MIC90: > 16 µg/mL
[13]
  MIC50: 2 µg/mL
  MIC90: 4 µg/mL
[14]
  MIC50: 1 µg/mL
  MIC90: 1 µg/mL
[15]
  MIC50: 1 µg/mL
  MIC90: 1 µg/mL
[16]
  MIC50: 8 µg/mL
  MIC90: 16 µg/mL
[17]
  MIC50: 1 µg/mL
  MIC90: > 16 µg/mL
[18]
  MIC50: 16 µg/mL
  MIC90: > 16 µg/mL
[19]
  MIC50: 1 µg/mL
  MIC90: 16 µg/mL
[20]
  MIC50: 0.03 µg/mL
  MIC90: 8 µg/mL
[21]
  MIC50: 1 µg/mL
  MIC90: 8 µg/mL
[22]
  MIC50: 8 µg/mL
  MIC90: > 16 µg/mL
[23]
  MIC50: 0.5 µg/mL
  MIC90: 0.5 µg/mL
[24]
  MIC50: 0.12 µg/mL
  MIC90: 4 µg/mL
[25]
  MIC50: 1 µg/mL
  MIC90: 8 µg/mL
[26]
  MIC50: 0.5 µg/mL
  MIC90: 8 µg/mL
[27]
  MIC50: 1 µg/mL
  MIC90: > 16 µg/mL
[28]
  MIC50: 0.12 µg/mL
  MIC90: 8 µg/mL
[29]
  MIC50: 2 µg/mL
  MIC90: 2 µg/mL
[30]
  MIC: ≤ 0.015 µg/mL
  MIC50: ≤ 0.015 µg/mL
  MIC90: ≤ 0.015 µg/mL
[31]
  MIC50: 0.12 µg/mL
  MIC90: 2 µg/mL
[32]
  MIC50: 2 µg/mL
[33]
  MIC50: 0.06 µg/mL
  MIC90: > 16 µg/mL
[34]
  MIC50: 0.12 µg/mL
  MIC90: 0.25 µg/mL
[35]
  MIC50: 0.25 µg/mL
  MIC90: 0.5 µg/mL
[36]
  MIC50: 0.5 µg/mL
  MIC90: 16 µg/mL
[37]
  MIC50: 0.12 µg/mL
  MIC90: 2 µg/mL
[38]
  MIC50: 0.03 µg/mL
  MIC90: 0.25 µg/mL
[39]
  MIC50: 0.06 µg/mL
  MIC90: 0.5 µg/mL
[40]
  MIC50: 1 µg/mL
  MIC90: 1 µg/mL
